From ChEMBL document CHEMBL1134973, “Modification of the pyridine moiety of non-peptidyl indole GnRH receptor antagonists” (Bioorg Med Chem Lett, 2002)

Columns and labels:
[1] = molecular target: T1, Gonadotropin-releasing hormone receptor (Homo sapiens, UniProt P30968); assay: Concentration required for the inhibition of phosphatidyl inositol hydrolysis in chinese hamster ovary cells expressing human GnRH receptor (Gonadotropin Release Hormone receptor); type: functional, cell-based
T1 sequence (P30968 whole entry): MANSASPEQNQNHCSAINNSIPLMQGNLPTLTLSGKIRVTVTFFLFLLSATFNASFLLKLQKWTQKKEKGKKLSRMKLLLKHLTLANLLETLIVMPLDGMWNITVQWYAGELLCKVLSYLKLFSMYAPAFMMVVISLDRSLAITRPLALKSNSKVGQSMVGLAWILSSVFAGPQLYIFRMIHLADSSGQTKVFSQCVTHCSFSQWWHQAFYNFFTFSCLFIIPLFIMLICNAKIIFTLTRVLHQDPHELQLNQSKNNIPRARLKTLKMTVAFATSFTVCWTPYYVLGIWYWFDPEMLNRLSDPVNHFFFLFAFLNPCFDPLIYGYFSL

[2] = molecular target: T1, Gonadotropin-releasing hormone receptor; assay: Concentration required for the inhibition of I-125 labeled buserelin binding to the human Gonadotropin-releasing hormone receptor
[3] = Oral bioavailability in dog; type: ADME, organism-based, Canis lupus familiaris; details: in vivo
[4] = Oral bioavailability of compound was determined in rats; type: ADME, organism-based; details: rat, in vivo
[5] = Half-life of compound was determined in dogs; type: ADME, organism-based, Canis lupus familiaris; details: dog, in vivo
[6] = Half-life of compound was determined in rats; type: ADME, organism-based; details: rat, in vivo
[7] = Half-life of compound in plasma of dog was determined; type: ADME, organism-based, Canis lupus familiaris

IC50 [1] | IC50 [2] | bioavailability [3] | bioavailability [4] | half-life [5] | half-life [6] | half-life [7] | Structure (SMILES)
26 nM | 0.8 nM | – | – | – | – | – | Cc1cc(C)cc(-c2[nH]c3ccc(C(C)(C)C(=O)N4CC5CCC4CC5)cc3c2[C@H](C)CNCCc2cc[n+]([O-])cc2C)c1
6.4 nM | 0.3 nM | 14% | – | – | – | – | Cc1cc(C)cc(-c2[nH]c3ccc(C(C)(C)C(=O)N4CC5CCC4CC5)cc3c2[C@H](C)CNCCc2cc[n+]([O-])cc2)c1
20 nM | 0.6 nM | – | – | – | – | – | Cc1cc(C)cc(-c2[nH]c3ccc(C(C)(C)C(=O)N4CC5CCC4CC5)cc3c2[C@H](C)CNCCc2ccnc(C(C)O)c2)c1 (stereo partly specified)
24 nM | 0.4 nM | – | – | – | – | – | Cc1cc(C)cc(-c2[nH]c3ccc(C(C)(C)C(=O)N4CC5CCC4CC5)cc3c2[C@H](C)CNCCc2cc(C)nc(C)c2)c1
8.7 nM | 0.9 nM | 36% | – | – | – | – | Cc1cc(C)cc(-c2[nH]c3ccc(C(C)(C)C(=O)N4CC5CCC4CC5)cc3c2[C@H](C)CNCCc2ccnc(C)c2)c1
371 nM | 8.2 nM | – | – | – | – | – | Cc1cc(C)cc(-c2[nH]c3ccc(C(C)(C)C(=O)N4CC5CCC4CC5)cc3c2[C@H](C)CNCCc2ccnc(C(=O)O)c2)c1
22 nM | 0.4 nM | – | – | – | – | – | CC(=O)OCc1cc(CCNC[C@@H](C)c2c(-c3cc(C)cc(C)c3)[nH]c3ccc(C(C)(C)C(=O)N4CC5CCC4CC5)cc23)ccn1
11 nM | 0.7 nM | – | – | – | – | – | Cc1cc(C)cc(-c2[nH]c3ccc(C(C)(C)C(=O)N4CC5CCC4CC5)cc3c2[C@H](C)CNCCc2ccnc(C#N)c2)c1
5.9 nM | 0.3 nM | 25% | 23% | 300 min | 120 min | – | Cc1cc(C)cc(-c2[nH]c3ccc(C(C)(C)C(=O)N4CC5CCC4CC5)cc3c2[C@H](C)CNCCc2cc[n+]([O-])c(C)c2)c1
7.5 nM | 0.4 nM | 15% | – | – | – | 120 min | Cc1cc(C)cc(-c2[nH]c3ccc(C(C)(C)C(=O)N4CC5CCC4CC5)cc3c2[C@H](C)CNCCc2ccnc(CO)c2)c1
62 nM | 4.6 nM | – | – | – | – | – | CCCc1cc(CCNC[C@@H](C)c2c(-c3cc(C)cc(C)c3)[nH]c3ccc(C(C)(C)C(=O)N4CC5CCC4CC5)cc23)ccn1
106 nM | 0.7 nM | – | – | – | – | – | Cc1cc(C)cc(-c2[nH]c3ccc(C(C)(C)C(=O)N4CC5CCC4CC5)cc3c2[C@H](C)CNCCc2ccnc(C(C)(C)O)c2)c1
25 nM | 0.9 nM | – | – | – | – | – | COC(=O)c1cc(CCNC[C@@H](C)c2c(-c3cc(C)cc(C)c3)[nH]c3ccc(C(C)(C)C(=O)N4CC5CCC4CC5)cc23)ccn1
12 nM | 0.6 nM | – | – | – | – | – | CC(=O)c1cc(CCNC[C@@H](C)c2c(-c3cc(C)cc(C)c3)[nH]c3ccc(C(C)(C)C(=O)N4CC5CCC4CC5)cc23)ccn1
48 nM | 0.8 nM | – | – | – | – | – | Cc1cc(C)cc(-c2[nH]c3ccc(C(C)(C)C(=O)N4CC5CCC4CC5)cc3c2[C@H](C)CNCCc2ccncc2C)c1
10 nM | 0.5 nM | 29% | – | 420 min | – | – | Cc1cc(C)cc(-c2[nH]c3ccc(C(C)(C)C(=O)N4CC5CCC4CC5)cc3c2[C@H](C)CNCCc2cc(C)[n+]([O-])c(C)c2)c1
19 nM | 3.3 nM | – | – | – | – | – | CCc1cc(CCNC[C@@H](C)c2c(-c3cc(C)cc(C)c3)[nH]c3ccc(C(C)(C)C(=O)N4CC5CCC4CC5)cc23)ccn1
55 nM | 0.7 nM | – | – | – | – | – | COCc1cc(CCNC[C@@H](C)c2c(-c3cc(C)cc(C)c3)[nH]c3ccc(C(C)(C)C(=O)N4CC5CCC4CC5)cc23)ccn1
